Read-outs that look alike come from different tables or passages of the source.

For data set [1] the following is noted: thiol, cited from earlier work.
For data set [2], the system named is endogenous RSK1 and RSK2. Nature of the data set: RSK1/2 occupancy in MDA-MB-231 cells by competitive labeling with BODIPY-FMK. The conditions noted are these: 0.1 and 1.0 μM, 2 h. Format: cell-based.
Data set [3] addresses RSK2 CTD (Mus musculus, UniProt P18654). The conditions noted are these: after 4 hours, guanidine.

For orientation: pKa means the negative logarithm of the acid dissociation constant. On to `NCCS` [cysteamine], for which the pKa in data set [1] (ref [36]) is 8.4.

As for `OCCS` [BME, β-mercaptoethanol], the pKa in data set [1] (ref [34]) was 9.6.

As for `Cc1ccc(-c2c(C=C(C#N)c3ccncc3)n(CCCO)c3ncnc(N)c23)cc1` [compound 17], in data set [2], the “Labeling of RSK1/2 by BODIPY-FMK in pretreated cells” value is “less effective”. On to `COc1cc(-c2n[nH]c3ccc(C=C(C#N)n4cccn4)cc23)cc(OC)c1OC` [S3], for which the “% dissociation / recovered from RSK2 after unfolding” value in data set [3] is ~ 2%.

Values taken from publication PMC4160273 (Journal of the American Chemical Society, 2014).
